Assay results: ChEMBL document CHEMBL5143734, “Seco-Lupane Triterpene Derivatives Induce Ferroptosis through GPX4/ACSL4 Axis and Target Cyclin D1 to Block the Cell Cycle” (J Med Chem, 2022)
The source made the active and inactive calls. The rule behind the calls is not given here.

Key:
[1] = test system: PANC-1; assay: Cytotoxicity against human PANC-1 cells assessed as reduction in cell viability by CCK-8 assay; assay type: functional, cell-based
[2] = target: G1/S-specific cyclin-D1 (Homo sapiens) (UniProt P24385); assay: Binding affinity to Cyclin D1 in human HepG2 cells by laser confocal microscopy; assay type: cell-based
Sequence of G1/S-specific cyclin-D1 (Homo sapiens) (P24385 whole entry): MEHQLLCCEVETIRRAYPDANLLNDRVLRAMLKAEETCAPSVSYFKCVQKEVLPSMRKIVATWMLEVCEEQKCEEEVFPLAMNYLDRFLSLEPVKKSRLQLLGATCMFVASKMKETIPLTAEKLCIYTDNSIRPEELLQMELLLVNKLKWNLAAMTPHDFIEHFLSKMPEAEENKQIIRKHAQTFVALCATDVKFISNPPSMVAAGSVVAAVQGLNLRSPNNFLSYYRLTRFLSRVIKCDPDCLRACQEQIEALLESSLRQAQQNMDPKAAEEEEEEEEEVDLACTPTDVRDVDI

[3] = test system: HepG2; assay: Cytotoxicity against human HepG2 cells assessed as reduction in cell viability at 5 to 100 uM relative to control; assay type: functional; conditions: dose 5-100 µM
[4] = test system: HepG2; assay: Cytotoxicity against human HepG2 cells assessed as reduction in cell viability at 10 uM relative to control; assay type: functional
[5] = Upregulation of Cyclin E1 mRNA expression in human HepG2 cells assessed as fragments per kilo base of exon per million mapped fragments […] (reference value: 11.43 to 14.86); assay type: functional
[6] = test system: HepG2; assay: Antiproliferative activity against human HepG2 cells assessed as inhibition of clone formation pretreated for 48 hrs followed by replacement with drug free medium every 3 days for 10 days by crystalline violet staining based assay; assay type: functional, cell-based; conditions: dose 0.5-2 µM, DDE = dose-dependent effect
[7] = test system: A549; assay: Cytotoxicity against human A549 cells assessed as reduction in cell viability by CCK-8 assay; assay type: functional, cell-based
[8] = test system: HepG2; assay: Downregulation of Cyclin A2 mRNA expression in human HepG2 cells at 0.5 to 2.0 uM by RT-qPCR analysis; assay type: functional, cell-based; conditions: dose 0.5-2 µM, time 6-36 hrs, TDE = time-dependent effect
[9] = test system: HepG2; assay: Antiinvasive activity in human HepG2 cells assessed as inhibition of cell invasion measured after 24 hrs by crystal violet staining based transwell assay; assay type: functional; conditions: dose 0.125-0.5 µM, DDE = dose-dependent effect
[10] = test system: HepG2; assay: Cytotoxicity against human HepG2 cells assessed as reduction in cell viability incubated for 48 hrs by CCK-8 assay; assay type: functional, cell-based; conditions: dose 0.78125-50 µM, DDE = dose-dependent effect
[11] = test system: HepG2; assay: Induction of ferroptosis in human HepG2 cells assessed as upregulation of ACSL4 mRNA expression by measuring fragments per kilo base of exon per million mapped fragments […] (reference value: 75.85 to 97.44); assay type: functional
[12] = test system: MCF7; assay: Cytotoxicity against human MCF7 cells assessed as reduction in cell viability by CCK-8 assay; assay type: functional, cell-based
[13] = test system: HepG2; assay: Induction of ferroptosis in human HepG2 cells assessed as downregulation of GPX4 mRNA expression by measuring fragments per kilo base of exon per million mapped fragments by qRT-PCR analysis (reference value: 298.18 to 302.30); assay type: functional
[14] = test system: HepG2; assay: Induction of cell cycle arrest in human HepG2 cells assessed as decrease in cells at G2 phase at 0.5 to 2 uM; assay type: functional, cell-based; conditions: dose 0.5-2 µM
[15] = test system: HepG2; assay: Cytotoxicity against human HepG2 cells assessed as reduction in cell viability by CCK-8 assay; assay type: functional, cell-based
[16] = test system: HepG2; assay: Induction of cell cycle arrest in human HepG2 cells assessed as increase in G1 phase at 0.5 to 2 uM; assay type: functional, cell-based; conditions: dose 0.5-2 µM
[17] = test system: HepG2; assay: Cytotoxicity against human HepG2 cells assessed as reduction in cell viability at 50 uM incubated for 48 hrs by CCK-8 assay; assay type: functional, cell-based
[18] = test system: HepG2; assay: Induction of ferroptosis in human HepG2 cells assessed as increased in Fe2+ level incubated for 36 hrs; assay type: functional, cell-based; conditions: dose 0.5-2 µM, DDE = dose-dependent effect
[19] = test system: HepG2; assay: Induction of ferroptosis in human HepG2 cells assessed as decrease in GPX4 protein expression at 2 uM by Western blot analysis; assay type: functional, cell-based; conditions: time 6-36 hrs, TDE = time-dependent effect
[20] = test system: HepG2; assay: Induction of cell cycle arrest in human HepG2 cells assessed as decrease in cells at S phase at 0.5 to 2 uM; assay type: functional, cell-based; conditions: dose 0.5-2 µM
[21] = test system: HepG2; assay: Induction of ferroptosis in human HepG2 cells assessed as decrease in GPX4 protein expression at 2 uM measured after 6 hrs by Western blot analysis; assay type: functional, cell-based
[22] = test system: HepG2; assay: Induction of ferroptosis in human HepG2 cells assessed as upregulation of ACSL4 mRNA expression at 0.25 to 1 uM by qRT-PCR analysis; assay type: functional, cell-based; conditions: dose 0.25-1 µM, time 24-48 hrs, TDE = time-dependent effect
[23] = test system: HepG2; assay: Induction of ferroptosis in human HepG2 cells assessed as increase in ACSL4 mRNA expression measured after 6 to 36 hrs by qRT-PCR analysis; assay type: functional, cell-based; conditions: dose 0.25-1 µM, time 6-36 hrs, DDE = dose-dependent effect
[24] = test system: HepG2; assay: Downregulation of Cyclin B1 mRNA expression in human HepG2 cells at 0.5 to 2.0 uM by RT-qPCR analysis; assay type: functional, cell-based; conditions: dose 0.5-2 µM, time 6-36 hrs, TDE = time-dependent effect
[25] = test system: HepG2; assay: Downregulation of Cyclin D1 mRNA expression in human HepG2 cells at 0.5 to 2.0 uM by RT-qPCR analysis; assay type: functional, cell-based; conditions: dose 0.5-2 µM, time 6-36 hrs, TDE = time-dependent effect
[26] = test system: HepG2; assay: Induction of ferroptosis in human HepG2 cells assessed as increased in MDA level incubated for 36 hrs; assay type: functional, cell-based; conditions: dose 0.5-2 µM, DDE = dose-dependent effect
[27] = test system: HepG2; assay: Cytotoxicity against human HepG2 cells assessed as reduction in cell viability at 1.5625 uM incubated for 48 hrs by CCK-8 assay relative to control; assay type: functional
[28] = test system: HepG2; assay: Inhibition of Cyclin D1 in human HepG2 cells assessed as reduction in E2F expression by Western blot analysis; assay type: cell-based; conditions: dose 0.5-2 µM, DDE = dose-dependent effect
[29] = test system: HepG2; assay: Downregulation of Cyclin A2 mRNA expression in human HepG2 cells assessed as fragments per kilo base of exon per million mapped fragments by RT-qPCR analysis (reference value: 37.48 to 47.03); assay type: functional
[30] = test system: HepG2; assay: Induction of ferroptosis in human HepG2 cells assessed as decreased in GSH level incubated for 36 hrs; assay type: functional, cell-based; conditions: dose 0.5-2 µM, DDE = dose-dependent effect
[31] = test system: HepG2; assay: Antiproliferative activity against human HepG2 cells incubated for 24 to 48 hrs by Edu staining based fluorescence microscopy assay; assay type: functional, cell-based; conditions: dose 0.125-2 µM, time 24-48 hrs, DDE = dose-dependent effect
[32] = test system: HepG2; assay: Induction of ferroptosis in human HepG2 cells assessed as increase in intracellular ROS level at 2 uM incubated for 48 hrs by DCFH-DA staining based flow cytometry analysis; assay type: functional
[33] = test system: HepG2; assay: Antiproliferative activity against human HepG2 cells at 0.125 to 2 uM by Edu staining based fluorescence microscopy assay; assay type: functional, cell-based; conditions: dose 0.125-2 µM, time 24-48 hrs, TDE = time-dependent effect
[34] = test system: HepG2; assay: Induction of ferroptosis in human HepG2 cells assessed as log2 fold increase in ACSL4 mRNA expression by qRT-PCR analysis; assay type: functional
[35] = test system: HepG2; assay: Induction of ferroptosis in human HepG2 cells assessed as increase in intracellular ROS level incubated for 48 hrs by DCFH-DA staining based flow cytometry analysis; assay type: functional, cell-based; conditions: dose 0.25-1 µM, DDE = dose-dependent effect
[36] = test system: HepG2; assay: Downregulation of Cyclin B1 mRNA expression in human HepG2 cells assessed as fragments per kilo base of exon per million mapped fragments by RT-qPCR analysis (reference value: 54.40 to 58.62); assay type: functional
[37] = test system: PC-3M; assay: Cytotoxicity against human PC-3M cells assessed as reduction in cell viability by CCK-8 assay; assay type: functional, cell-based
[38] = test system: HepG2; assay: Downregulation of Cyclin E1 mRNA expression in human HepG2 cells at 0.5 to 2.0 uM by RT-qPCR analysis; assay type: functional, cell-based; conditions: dose 0.5-2 µM, time 6-36 hrs, TDE = time-dependent effect

Question: Which results are given for `C=C(C)[C@@H]1CC[C@]2(C(=O)OCCCCCn3cc(CCN)c4ccccc43)CC[C@]3(C)[C@H](C[C@H]4OC(=O)C[C@@H](O)[C@]5(C)[C@@H]4[C@@]3(C)CC[C@H]5C(=C)C)[C@@H]12`?
Answer: IC50 [1]: 5.5 µM; Activity [2]: Active; Activity [3]: 10.55%; Activity [4]: 20.15%; Activity [5]: 14.11; Activity [6]: Dde; IC50 [7]: 5.44 µM; Activity [8]: Tde; Activity [9]: Dde; Activity [10]: Dde; Activity [11]: 132.19; IC50 [12]: 5.34 µM; Activity [13]: 221.77; Activity [14]: Active; IC50 [15]: 0.97 µM; Activity [16]: Active; Activity [17]: Active; Activity [18]: Dde; Activity [19]: Tde; Activity [20]: Active; Activity [21]: Active; Activity [22]: Tde; Activity [23]: Dde; Activity [24]: Tde; Activity [25]: Tde; Activity [26]: Dde; inhibition at 1.562 µM [27]: 95.1%; inhibition [28]: Dde; Activity [29]: 30.38; Activity [30]: Dde; Activity [31]: Dde; Activity [32]: 96.39%; Activity [33]: Tde; log2FC [34]: 0.83; Activity [35]: Dde; Activity [36]: 39.59; IC50 [37]: 3.93 µM; Activity [38]: Tde
